In patent publication US9464326B2, “Total and phosphorylated IL-1 receptor-associated kinase-1 and IL-1 receptor-associated kinase-4 as a biomarker for cancer progression and chemotherapy resistance” (University of Maryland, Baltimore, priority 2012, dated 2016):

Columns and labels:
IRAK-1 = IRAK-1 (Homo sapiens, UniProt P51617); conditions: supplier (EMD Millipore) description; cited from earlier work
SupT1 = assay: Proliferation (3H-thymidine) of SupT1; type: cell-based, human
Source text: (§1) CCRF-CEM, CEM/C1, CEM/C2, CEM-C7, Jurkat, Loucy, Molt-4, HSB-2, SUP-T1, Hut 78, HH, Hut 102, MO, and H9 T-leukemia and T-lymphoma cell lines were purchased from the American Type Culture Collection (Manassas, Va., USA). All of the cell lines were initially expanded and cryopreserved within one month of receipt. Cells were typically used for 6 months at which time a fresh vial of cryopreserved cells was used. Total T cells from healthy donors were isolated via negative selection followed by positive selection using a CD3+ selection kit (Invitrogen, Carlsbad, Calif.). T cells were isolated from patients with T-ALL bone marrow or peripheral blood samples containing more than 70% leukemia cells using a CD2+ isolation kit (STEMCELL Technologies, Vancouver, Canada). All tissues were collected under institutional IRB-approved protocols and all participants gave written informed assent/consent. For in vitro experiments, T-ALL cells were cultured in AIM-V medium supplemented with 20% human AB serum in the presence of recombinant human stem cell factor (50 ng/mL; Amgen, Thousand Oaks, Calif.), insulin (20 nM; Sigma-Aldrich, St Louis, Mo., USA) and IL-7 (50 ng/mL; R&D Systems, Minneapolis, Minn., USA). In other experiments, protein lysate was collected using the Full Moon Biosystems (Sunnyvale, Calif., USA) buffer prior to protein examination by western blot or protein array.
(§2) Cells were cultured in a 96-well plate (Corning Costar, Corning, N.Y., USA) with various concentrations of TLR ligands 1-9, starting at 10 μg/ml, in a final volume of 200 ul. TLR ligands were diluted 2-fold. Cell lines (25-40×10^3/well) were cultured for 54 hours, whereas fresh patient-derived T-ALL cells (200×10^3/well) were cultured for 30 hours prior to adding [^3H]-thymidine for 18 hours. After this time point, cells were harvested with a Packard Filter-Mate-96 cell harvester (Perkin Elmer, Waltham, Mass., USA) and counted on Packard Top Count-NXT (Perkin Elmer, Waltham, Mass., USA). Results were expressed as average counts per minute (cpm). In some experiments CCRF-CEM cells were pre-treated with TLR1-TLR2 ligand (Pam3CysK4; 2.5 ug/ml) for 48 hrs, washed, and then cultured in the presence of varying concentrations of FBS. Forty-eight hours later, proliferation (±SD) was determined by ^3H-thymidine incorporation. Alternatively, apoptosis was measured by flow cytometry after staining cells with Annexin-V (BD Pharmingen, San Diego, Calif., USA) and propidium iodide (Sigma). Cell number was counted under microscopy by staining cells with trypan blue.
(§3) The following TLR ligands were purchased from Invivogen (San Diego, Calif., USA): tripalmitoyl-S-(bis(palmitoyloxy)propyl)-Cys-Ser-(Lys)3-Lys (TLR1-2); Poly I:C (TLR3); ultrapure S. Minnesota Lipopolysaccharide (TLR4); S. typhimurium flagellin (TLR5); FSL-1 (TLR2/6); Imiquimod (TLR7); ssRNA40/Lyovec (TLR8); CpG-ODN 2006 (TLR9).

Hut 102 = assay: Proliferation (3H-thymidine) of Hut 102; type: cell-based, human; conditions: 3H-thymidine uptake, 72 h
Source text: as §1, with “In other experiments, protein lysate was collected using the Full Moon Biosystems (Sunnyvale, Calif., USA) buffer prior to protein examination by western blot or protein array.” left out
(§4) Cells were cultured in a 96-well plate (Corning Costar, Corning, N.Y., USA) with various concentrations of TLR ligands 1-9, starting at 10 μg/ml, in a final volume of 200 ul. […] After this time point, cells were harvested with a Packard Filter-Mate-96 cell harvester (Perkin Elmer, Waltham, Mass., USA) and counted on Packard Top Count-NXT (Perkin Elmer, Waltham, Mass., USA). Results were expressed as average counts per minute (cpm). […] Forty-eight hours later, proliferation (±SD) was determined by ^3H-thymidine incorporation. Alternatively, apoptosis was measured by flow cytometry after staining cells with Annexin-V (BD Pharmingen, San Diego, Calif., USA) and propidium iodide (Sigma). Cell number was counted under microscopy by staining cells with trypan blue. […]

Molt-4 = assay: Proliferation (3H-thymidine) of Molt-4; type: cell-based, human; conditions: 3H-thymidine uptake, 72 h
Source text: as §1, with “In other experiments, protein lysate was collected using the Full Moon Biosystems (Sunnyvale, Calif., USA) buffer prior to protein examination by western blot or protein array.” left out
as §4

H9 = assay: Proliferation (3H-thymidine) of H9; type: cell-based, human
Source text: as §1, §2, §3

G361 melanoma cells = assay: Western blot of IRAK phosphorylation in G361; type: cell-based, human; conditions: Pam3CysK4 2.5 μg/ml or flagellin 100 ng/ml, 48 hours, FIG. 22B
Experimental: FIG. 22. Effects of TLR stimulation and cytokines on IRAK phosphorylation in melanoma cells. (A) A375 cells were cultured in the presence of anti-IL-18, anti-CXCL-1, (R&D Systems), anti-IL-1 (BioLegend), or mouse IgG (Sigma-Aldrich) all at 10 μg/ml. Forty-eight hours later the levels of the indicated proteins were determined by western blot. (B) A375 cells, which express p-IRAK-1 and p-IRAK-4, and G361 melanoma cells, which express very low levels of p-IRAK-1 (and express TLR5) were cultured in the presence of TLR1-TLR2 agonist (Pam3CysK4; 2.5 μg/ml) or TLR5 (flagellin; 100 ng/ml; InVivogen). Forty-eight hours later total protein was collected and the levels of the indicated proteins were examined by western blot.
Total cell extracts were prepared from melanoma cells. […] Melanoma tissue arrays were purchased from US Biomax, Inc (Rockville, Md.). For immunohistochemical staining samples were stained with mouse monoclonal anti-human phosphor-IRAK.-4 antibody (Abnova; dilution, 3.5 μg/ml) or normal mouse serum. Tissue histology sections (5-μm-thick) were deparaffinized, hydrated, heated in boiling 10 mmol/L sodium citrate (pH 6.0), for antigen retrieval, for 30 min and washed in Tris buffer. Peroxide blocking was done with 3% […] in methanol at room temperature for 15 min, followed by 10% fetal bovine serum in TBS-t for 30 min at room temperature. Primary antibody incubation was done overnight at 4° C. Secondary antibody incubation with horse anti-mouse (1:200; Vector Laboratories, Burlingame, Calif.) was done for 1 hr, followed by application of diaminobenzidine chromogen for 5 min. The slides were then counterstained with hematoxylin and topped with a coverslip. IHC specimens were analyzed using “quick score” system in which the intensity of the immunohistochemical reaction was scored by multiplying the intensity 1 (weak), 2 (moderate), and 3 (strong) and the proportion of cells staining positively 0 (<10%), 1 (10-25%), 2 (26-50%), 3 (51-75%) or 4 (>75%).

Chain of IRAK-1 (P51617 whole entry): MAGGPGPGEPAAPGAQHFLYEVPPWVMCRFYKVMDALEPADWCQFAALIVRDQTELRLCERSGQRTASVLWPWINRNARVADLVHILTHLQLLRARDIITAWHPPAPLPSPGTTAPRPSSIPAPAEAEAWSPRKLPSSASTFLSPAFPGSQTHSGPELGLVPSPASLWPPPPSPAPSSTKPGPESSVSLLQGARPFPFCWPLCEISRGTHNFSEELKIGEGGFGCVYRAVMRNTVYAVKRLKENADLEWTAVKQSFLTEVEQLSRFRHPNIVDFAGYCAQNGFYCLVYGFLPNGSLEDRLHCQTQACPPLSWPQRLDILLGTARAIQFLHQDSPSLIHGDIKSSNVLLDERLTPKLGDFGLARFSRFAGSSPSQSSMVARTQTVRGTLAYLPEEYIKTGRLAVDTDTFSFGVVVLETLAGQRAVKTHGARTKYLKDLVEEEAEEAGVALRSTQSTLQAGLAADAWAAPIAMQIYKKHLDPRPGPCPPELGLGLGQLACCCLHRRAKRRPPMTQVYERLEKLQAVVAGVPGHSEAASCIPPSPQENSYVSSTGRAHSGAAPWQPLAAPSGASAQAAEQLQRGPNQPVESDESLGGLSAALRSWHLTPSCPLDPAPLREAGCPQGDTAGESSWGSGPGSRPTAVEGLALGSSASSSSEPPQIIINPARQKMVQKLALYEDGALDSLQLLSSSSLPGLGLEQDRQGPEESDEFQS

Row | Molecule | inhibition of IRAK-1 (IRAK-1) | Proliferative effects of TLR ligands (SupT1; SupT1, 3H-thymidine uptake, 72 h) | effect on proliferation (in words) (SupT1; SupT1 T-lymphoblastic leukemia, FIG. 1A) | Proliferative effects of TLR ligands (Hut 102) | Proliferative effects of TLR ligands (Molt-4) | Proliferative effects of TLR ligands (H9; H9, 3H-thymidine uptake, 72 h) | effect on proliferation (in words) (H9; H9 T-lymphoma, FIG. 1A) | p-IRAK-1 or p-IRAK-4 expression levels (G361 melanoma cells)
1 | O=C(Nc1nc2ccccc2n1CCN1CCOCC1)c1cccc([N+](=O)[O-])c1 [IRAK-1,-4 inhibitor] | selectively inhibits |  |  |  |  |  |  | 
2 | tripalmitoyl-S-(bis(palmitoyloxy)propyl)-Cys-Ser-(Lys)3-Lys [Pam3Cysk4] |  | ∘ | no effect on proliferation | ∘ | ∘ | ∘ | no effect on proliferation | neither TLR-1-TLR2 agonist (Pam3CysK4), nor TLR5 (Flagellin) stimulation increased or induced
